# According to ChEMBL document CHEMBL4421727, “Small molecule inhibitors of 8-oxoguanine dna glycosylase-1 (ogg1)” (2017):
# pIC50: −log10 of the molar value. Calls of active or inactive are those of the source. The calls are words filed in the database; no cut-off is given here.
# Experiments:
# [1] = target: T1, Endonuclease 8-like 1 (Homo sapiens, UniProt Q96FI4); test: Inhibition of NEIL1 (unknown origin) assessed as remaining enzyme activity at 50 uM using Sp/Gh substrate incubated for 40 mins by TAMRA fluorescence-based assay
# [2] = target: T2, Endonuclease III-like protein 1 (Homo sapiens) (UniProt P78549); test: Inhibition of NTH1 (unknown origin) assessed as remaining enzyme activity at 50 uM incubated for 40 mins by TAMRA fluorescence-based assay
# T2 sequence (whole entry): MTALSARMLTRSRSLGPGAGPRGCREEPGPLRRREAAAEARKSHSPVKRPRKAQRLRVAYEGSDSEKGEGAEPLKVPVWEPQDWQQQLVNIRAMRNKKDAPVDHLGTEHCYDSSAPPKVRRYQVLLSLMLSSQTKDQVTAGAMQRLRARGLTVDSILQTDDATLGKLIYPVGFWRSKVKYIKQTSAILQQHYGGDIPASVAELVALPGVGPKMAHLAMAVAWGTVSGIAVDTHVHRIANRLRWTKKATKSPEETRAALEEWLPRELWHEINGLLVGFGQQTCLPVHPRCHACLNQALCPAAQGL
# [3] = target: T3, Formamidopyrimidine-DNA glycosylase (Escherichia coli (strain K12)) (UniProt P05523); test: Inhibition of Escherichia coli FPG assessed as remaining enzyme activity at 50 uM using 8-oxo-Gua substrate incubated for 10 mins by TAMRA fluorescence-based assay
# T3 sequence (whole entry): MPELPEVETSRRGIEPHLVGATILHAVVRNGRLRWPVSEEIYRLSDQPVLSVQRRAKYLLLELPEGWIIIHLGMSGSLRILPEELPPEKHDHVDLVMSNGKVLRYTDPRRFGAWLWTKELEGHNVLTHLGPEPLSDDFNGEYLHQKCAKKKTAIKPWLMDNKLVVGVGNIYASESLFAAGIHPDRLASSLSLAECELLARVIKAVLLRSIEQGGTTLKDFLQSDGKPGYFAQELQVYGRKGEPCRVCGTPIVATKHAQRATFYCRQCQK
# [4] = Binding affinity to duplex DNA (unknown origin) assessed as induction of DNA intercalation at 50 uM incubated for 30 mins by gel electrophoresis
# [5] = target: T4, N-glycosylase/DNA lyase (Homo sapiens, UniProt O15527); test: Inhibition of human OGG1 assessed as reduction in AP lyase activity using AP-containing substrate
# [6] = target: T4, N-glycosylase/DNA lyase; test: Inhibition of human OGG1 assessed as reduction in free 8-oxo-Gua release using gamma-irradiated calf thymus DNA substrate incubated for 1 hr by GC-MS/MS assay
# [7] = target: T4, N-glycosylase/DNA lyase; test: Inhibition of human OGG1 assessed as reduction in free Inhibition of human OGG1 assessed as reduction in free FapyGua release using gamma-irradiated calf thymus DNA substrate incubated for 1 hr by GC-MS/MS assay
# [8] = target: T1, Endonuclease 8-like 1; test: Inhibition of NEIL1 (unknown origin) using Sp/Gh substrate incubated for 40 mins by TAMRA fluorescence-based assay
# [9] = target: T5, Endonuclease III-like protein 1 (Homo sapiens, UniProt P78549); test: Inhibition of NTH1 (unknown origin) incubated for 40 mins by TAMRA fluorescence-based assay
# T5 sequence (P78549 whole entry): T2 sequence (whole entry)
# [10] = target: T6, Formamidopyrimidine-DNA glycosylase (Escherichia coli (strain K12), UniProt P05523); test: Inhibition of Escherichia coli FPG using 8-oxo-Gua substrate incubated for 10 mins by TAMRA fluorescence-based assay
# T6 sequence (P05523 whole entry): T3 sequence (whole entry)
# [11] = species: Homo sapiens; test: Selectivity index, ratio of IC50 for inhibition of NEIL1 (unknown origin) using Sp/Gh substrate incubated for 40 mins by TAMRA fluorescence-based assay to IC50 for inhibition of human OGG1 incubated for 30 mins using 8-oxo-Gua-containing substrate by TAMRA fluorescence-based assay
# [12] = species: Homo sapiens; test: Selectivity index, ratio of IC50 for inhibition of NTH1 (unknown origin) incubated for 40 mins by TAMRA fluorescence-based assay to IC50 for inhibition of human OGG1 incubated for 30 mins using 8-oxo-Gua-containing substrate by TAMRA fluorescence-based assay
# [13] = Selectivity index, ratio of IC50 for inhibition of Escherichia coli FPG using 8-oxo-Gua substrate incubated for 10 mins by TAMRA fluorescence-based assay to IC50 for inhibition of human OGG1 incubated for 30 mins using 8-oxo-Gua-containing substrate by TAMRA fluorescence-based assay
# [14] = target: T1, Endonuclease 8-like 1; test: Inhibition of NEIL1 (unknown origin) assessed as effect on DNA lesions per 10^6 DNA bases using FapyAde substrate incubated for 1 hr by GC-MS/MS assay
# [15] = target: T1, Endonuclease 8-like 1; test: Inhibition of NEIL1 (unknown origin) assessed as effect on DNA lesions per 10^6 DNA bases using FapyGua substrate incubated for 1 hr by GC-MS/MS assay
# [16] = target: T1, Endonuclease 8-like 1; test: Inhibition of NEIL1 (unknown origin) assessed as effect on DNA lesions per 10^6 DNA bases using 5-OH-5-MeHyd substrate incubated for 1 hr by GC-MS/MS assay
# [17] = target: T2, Endonuclease III-like protein 1 (Homo sapiens); test: Inhibition of NTH1 (unknown origin) assessed as effect on DNA lesions per 10^6 DNA bases using FapyAde substrate incubated for 1 hr by GC-MS/MS assay
# [18] = target: T2, Endonuclease III-like protein 1 (Homo sapiens); test: Inhibition of NTH1 (unknown origin) assessed as effect on DNA lesions per 10^6 DNA bases using FapyGua substrate incubated for 1 hr by GC-MS/MS assay
# [19] = target: T2, Endonuclease III-like protein 1 (Homo sapiens); test: Inhibition of NTH1 (unknown origin) assessed as effect on DNA lesions per 10^6 DNA bases using 5-OH-5-MeHyd substrate incubated for 1 hr by GC-MS/MS assay
# [20] = target: T2, Endonuclease III-like protein 1 (Homo sapiens); test: Inhibition of NTH1 (unknown origin) assessed as effect on DNA lesions per 10^6 DNA bases using thymine glycol substrate incubated for 1 hr by GC-MS/MS assay
# [21] = target: T2, Endonuclease III-like protein 1 (Homo sapiens); test: Inhibition of NTH1 (unknown origin) assessed as effect on DNA lesions per 10^6 DNA bases using 5-hydroxycytosine substrate incubated for 1 hr by GC-MS/MS assay
# [22] = target: T4, N-glycosylase/DNA lyase; test: Inhibition of human OGG1 assessed as protection against NaOH-mediated strand cleavage using AP-containing substrate; parameters: scale not given: the % may be the effect or the level left
# [23] = target: T3, Formamidopyrimidine-DNA glycosylase (Escherichia coli (strain K12)); test: Inhibition of Escherichia coli FPG assessed as reduction in enzyme-mediated incision using compound pre-incubated with 8-oxo-Gua substrate for 30 mins at 37 degC followed by enzyme addition
# [24] = target: T3, Formamidopyrimidine-DNA glycosylase (Escherichia coli (strain K12)); test: Inhibition of Escherichia coli FPG assessed as reduction in enzyme-mediated incision using compound pre-incubated with AP-site containing DNA substrate for 30 mins at 37 degC followed by enzyme addition
# [25] = target: T4, N-glycosylase/DNA lyase; test: Inhibition of human OGG1 binding to 8-oxo-Gua substrate using compound pre-incubated with enzyme for 5 to 10 mins before substrate addition and further incubated for 5 mins by native gel electrophoresis based by gel-shift assay
# [26] = target: T4, N-glycosylase/DNA lyase; test: Inhibition of human OGG1 catalytic activity assessed as reduction trapping of substrates at 10 uM using 8-oxo-Gua substrate in presence of sodium cyno-borohydride by gel electrophoresis method
# [27] = target: T4, N-glycosylase/DNA lyase; test: Inhibition of human OGG1 catalytic activity assessed as reduction trapping of substrates at 10 uM using AP site containing substrate in presence of sodium cyno-borohydride by gel electrophoresis method
# [28] = target: T4, N-glycosylase/DNA lyase; test: Inhibition of human OGG1 catalytic activity assessed as reduction trapping of substrates using 8-oxo-Gua substrate by measuring concentration of compound needed to reduce borohydride trapping by 50% in presence of sodium cyno-borohydride by gel electrophoresis method
# [29] = target: T4, N-glycosylase/DNA lyase; test: Inhibition of human OGG1 catalytic activity assessed as reduction trapping of substrates using AP site containing substrate by measuring concentration of compound needed to reduce borohydride trapping by 50% in presence of sodium cyno-borohydride by gel electrophoresis method
# [30] = target: T4, N-glycosylase/DNA lyase; details: 0.08 to 8 uM
# Description: Inhibition of human OGG1 at 0.08 to 8 uM incubated for 30 mins using 8-oxo-Gua-containing substrate by PAGE-based cleavage assay
# T4 sequence (O15527 whole entry): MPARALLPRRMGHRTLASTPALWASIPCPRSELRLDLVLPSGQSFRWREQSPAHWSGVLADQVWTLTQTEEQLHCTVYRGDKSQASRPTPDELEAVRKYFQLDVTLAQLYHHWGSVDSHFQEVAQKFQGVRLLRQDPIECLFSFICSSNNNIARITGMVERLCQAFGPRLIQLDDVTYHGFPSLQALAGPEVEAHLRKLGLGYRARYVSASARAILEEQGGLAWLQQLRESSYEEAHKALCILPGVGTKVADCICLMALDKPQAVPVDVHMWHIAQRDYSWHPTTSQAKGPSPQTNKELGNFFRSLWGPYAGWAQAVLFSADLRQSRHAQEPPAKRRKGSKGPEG
# T1 sequence (Q96FI4 whole entry): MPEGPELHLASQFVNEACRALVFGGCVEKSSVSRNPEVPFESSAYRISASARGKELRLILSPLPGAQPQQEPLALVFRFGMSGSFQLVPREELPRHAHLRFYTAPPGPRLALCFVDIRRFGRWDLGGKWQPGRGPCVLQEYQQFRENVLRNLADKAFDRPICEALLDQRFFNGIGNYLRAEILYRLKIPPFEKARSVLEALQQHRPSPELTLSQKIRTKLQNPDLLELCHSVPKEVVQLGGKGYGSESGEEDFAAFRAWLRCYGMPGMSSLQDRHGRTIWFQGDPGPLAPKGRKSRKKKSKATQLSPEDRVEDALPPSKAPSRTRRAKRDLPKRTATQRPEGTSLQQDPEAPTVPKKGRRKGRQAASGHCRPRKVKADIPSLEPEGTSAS
smiles,measurement,setting,value
Cc1cc(OCC(=O)NN)cc(C)c1Cl,Activity,[1],83.7%
same,Activity,[2],75.1%
same,Activity,[3],95%
same,Activity,[4],inactive
NNC(=O)c1sc2cccc(Cl)c2c1Cl,Activity,[1],84.6%
same,Activity,[2],63.1%
same,Activity,[3],91.7%
same,inhibition,[5],Active
same,inhibition,[6],Active
same,inhibition,[7],Active
same,pIC50,[8],< 4.30
same,pIC50,[9],< 4.30
same,pIC50,[10],< 4.30
same,Ratio IC50,[11],> 200
same,Ratio IC50,[12],> 200
same,Ratio IC50,[13],> 200
same,inhibition,[14],inactive
same,inhibition,[15],inactive
same,inhibition,[16],inactive
same,inhibition,[17],inactive
same,inhibition,[18],inactive
same,inhibition,[19],inactive
same,inhibition,[20],inactive
same,inhibition,[21],inactive
same,Activity,[4],inactive
same,Activity,[22],2%
same,inhibition,[23],inactive
same,inhibition,[24],inactive
same,inhibition,[25],inactive
same,inhibition,[26],Active
same,inhibition,[27],Active
same,pIC50,[28],5.99
same,pIC50,[29],6.13
CCCC/C(C)=N\NC(=O)c1cccc(Br)c1,Activity,[1],101%
same,Activity,[2],92.6%
same,Activity,[3],90.9%
same,Activity,[4],inactive
CCCN1CCC(=NNC(=O)c2ccc(Cl)cc2Cl)CC1,Activity,[1],91.2%
same,Activity,[2],96.1%
same,Activity,[4],inactive
NNC(=O)COc1cccc2ccccc12,Activity,[1],78.7%
same,Activity,[2],53.6%
same,Activity,[3],88.5%
same,Activity,[4],inactive
O=C(CCNNC(=O)c1ccncc1)NCc1ccccc1,Activity,[1],96.4%
same,Activity,[2],108%
O=C(NN=C1CCCCC1)c1cc2ccccc2cc1O,Activity,[1],87.4%
same,Activity,[2],83%
same,Activity,[3],77%
same,inhibition,[5],Active
same,inhibition,[6],Active
same,inhibition,[7],Active
same,pIC50,[8],< 4.30
same,pIC50,[9],< 4.30
same,pIC50,[10],< 4.30
same,Ratio IC50,[11],> 200
same,Ratio IC50,[12],> 200
same,Ratio IC50,[13],> 200
same,inhibition,[14],inactive
same,inhibition,[15],inactive
same,inhibition,[16],inactive
same,inhibition,[17],inactive
same,inhibition,[18],inactive
same,inhibition,[19],inactive
same,inhibition,[20],inactive
same,inhibition,[21],inactive
same,Activity,[4],inactive
same,Activity,[22],10%
same,inhibition,[23],inactive
same,inhibition,[24],inactive
same,inhibition,[25],inactive
same,inhibition,[26],Active
same,inhibition,[27],Active
NNc1nncc2ccccc12,Activity,[22],64%
CC1CCCC/C1=N/NC(=O)c1sc2ccccc2c1Cl (stereo not drawn),Activity,[1],82.3%
same,Activity,[2],94.8%
same,Activity,[3],87.3%
same,pIC50,[8],< 4.30
same,pIC50,[9],< 4.30
same,pIC50,[10],< 4.30
same,inhibition,[14],inactive
same,inhibition,[15],inactive
same,inhibition,[16],inactive
same,inhibition,[17],inactive
same,inhibition,[18],inactive
same,inhibition,[19],inactive
same,inhibition,[20],inactive
same,inhibition,[21],inactive
same,Activity,[4],inactive
same,inhibition,[23],inactive
same,inhibition,[24],inactive
NNC(=O)c1ccncc1,Activity,[1],80.6%
same,Activity,[2],98%
same,inhibition,[5],inactive
same,inhibition,[6],inactive
same,inhibition,[7],inactive
same,Ratio IC50,[11],> 200
same,Ratio IC50,[12],> 200
same,Ratio IC50,[13],> 200
same,Activity,[22],1%
same,inhibition,[26],Active
same,inhibition,[27],Active
same,inhibition,[30],inactive
